Measured values: patent US20090012446A1, “DEVICES, SYSTEMS AND METHODS FOR RELEASE OF CHEMICAL AGENTS” (priority 2007, published 2009)

Legend:
[1] = system: cultured hippocampal network; experiment: Evoked reverberatory activity of a cultured hippocampal network, patch clamping (polysynaptic current); assay type: cell-based, rat
Text: In several studies, the NMDA-type glutamate receptor antagonist AP-5 was, for example, incorporated as a dopant into PPy-coated gold “macro-electrodes” (having an area of 0.77-cm^2). In general, macro-electrodes or macroelectrodes have dimensions greater than 1 mm. A hippocampal neuronal culture and patch clamping were used to test the effectiveness of AP5 release. The drug was released from the electrode into normal recording solution by applying 30 cyclic voltage stimuli. This solution, when added to the neuronal culture, blocked evoked reverberatory activity in the network. […] 280 trials (at 30 s intervals) of evoked activity of a cultured hippocampal network under 5 different conditions were made in several studies as follows: 1. control (ctrl); 2. with 25 μM D-AP5 (AP5); 3. wash with recording solution that soaked the macroelectrode without voltage pulses (wash1); 4. with recording solution containing electrically released AP5 (AP5_r); 5. wash with normal recording solution (wash2). […] FIGS. 3A-3E sets forth example traces of polysynaptic current with one sample trace for each test condition. The scale bar in FIGS. 3A-E is 0.5 nA, 1 s.

[2] = system: neuronal cultures from E18 rat cortices; experiment: Extracellular recording of spontaneous spiking on MED64 microelectrodes coated with polypyrrole/CNQX after current stimulus; assay type: cell-based
Text: CNQX is an AMPA type glutamate receptor antagonist which inhibits excitatory neural transmission. We electrodeposited polypyrrole/CNQX on the microelectrodes of MED64 probes which were than plated with neuronal cultures from E18 rat cortices. When spontaneous activity was observed on an electrode bearing a CNQX/PPy film, a current stimulus (four 1 s-long pulses of −5 μA with 200 ms refractory periods in between) was applied to the electrode. Recordings were taken before and after the stimulus to observe any inhibition and recovery (during the stimulation it was not possible to record from the particular electrode given the pulse).
It was observed that neural spiking disappeared after applying the stimulus to an electrode bearing the PPy/CNQX. And at a later time point action potentials from the same cell (determined by examination of the waveforms in Offline Sorter and Wave Tracker, Plexon Inc.) reappeared on the electrode and the rate returned to baseline (determined by pre-stimulus control recordings). […] We determined, through repeated release, inhibition and recovery cycles, a time course of inhibition and recovery (see FIG. 5B) that appears consistent with the published effect of CNQX and with the theoretical estimate of CNQX diffusion in solution. In the studies of FIG. 5B, repeated CNQX release trials were performed to determine a time course of recovery. […]

[3] = system: low-density neuronal network; experiment: Patch clamp recording of monosynaptic currents in low-density neuronal network on PPy-modified MED64 after command signal; assay type: cell-based
Text: FIG. 6A is a photomicrograph image of a low-density neuronal network growing on a conducting polymer modified multielectrode array (MED64 available from Panasonic). The platinum coated electrodes are modified with the conducting polymer poly-pyrrole (PPy) containing either CNQX or chloride and phosphate ions (P) from PBS (blank release control). Release of the drug is affected by a “command signal,” which is the delivery of a voltage pulse (−2.5 V, 200 ms). Neuron “firing,” the generation of action potentials, is an all or none phenomenon. Synaptic currents are a continuous and graded phenomenon. For this reason synaptic currents recorded by patch electrodes better reflect the release and diffusion of the synaptic inhibitor CNQX, compared to action potentials recorded by the extracellular electrodes. To monitor the effect of release, individual cells in the network are patch clamped (wherein the patched cell is indicated by an arrow in FIG. 6A). The experimental protocol is described graphically in FIG. 6B. Neural stimulations (ns1,2, . . . ,8) are delivered through the substrate electrodes (but not the releasing electrode). The command signal starts 300 ms prior to ns2, and the currents are recorded by the patch electrode. […] FIG. 6C sets forth 8 columns corresponding to ns1 . . . 8, and 6 rows corresponding to individual trials. […]

| Structure (SMILES) | reverberatory activity (polysynaptic current) ([1]; added AP5, 25 μM D-AP5 in recording solution) | reverberatory activity (polysynaptic current) ([1]; recording solution containing AP5 electrically released from PPy macroelectrode by 30 cyclic voltage stimuli (AP5_r)) | neuronal spiking on the releasing/recording electrode after release ([2]; four 1 s pulses of −5 μA, transient, with subsequent recovery to baseline) | spiking activity on neighboring electrodes after release ([2]; inter-electrode distance of 212 μm) | monosynaptic current following release (individual trial, FIG. 6C) ([3]; cell close to a CNQX containing electrode) | size of monosynaptic currents following command signal ([3]; voltage pulse −2.5 V, 200 ms to electrode with PPy film containing CNQX) |
| --- | --- | --- | --- | --- | --- | --- |
| N[C@H](CCCP(=O)(O)O)C(=O)O [AP5, 2-amino-5-phosphonopentanoic acid] | completely blocked | completely blocked | – | – | – | – |
| N#Cc1cc2nc(O)c(O)nc2cc1[N+](=O)[O-] [CNQX, 6-cyano-7-nitroquinoxaline-2,3-dione] | – | – | suppression of neuronal spiking | did not affect spiking activity on neighboring electrodes | almost completely abolished | significant decrease |
